Values joined by “and” are separate entries in the source; they are usually repeats but may differ in a detail not shown here. Identical values can stand only once.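 How tested: cells in 96-well plates exposed to compound for 48 hours at five concentrations. The concentration for 50% growth inhibition is given as GI50. TGI denotes the concentration required for complete inhibition of growth.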
Columns and labels:
Assay in all cases: DTP human tumour cell line panel, 48 h
[1] = tested on: MDA-MB-435
[2] = tested on: T-47D breast
[3] = tested on: MDA-N
[4] = tested on: HOP-18 NSCLC
[5] = tested on: LXFL 529 NSCLC
[6] = tested on: SNB-78 CNS
[7] = tested on: KM20L2 colon
[8] = tested on: DMS 273 small cell lung
[9] = tested on: RXF-631 renal

| SMILES | GI50 [1] [µM] | TGI [1] | GI50 [2] [µM] | TGI [2] | TGI [3] | TGI [4] [µM] | TGI [5] [µM] | TGI [6] [µM] | TGI [7] [µM] | TGI [8] [µM] | TGI [9] [µM] |
| --- | --- | --- | --- | --- | --- | --- | --- | --- | --- | --- | --- |
| C=CCCC(O)c1ccc(CCCCCCCCCCC)o1 (stereo unspecified) | 16.7 | 35.3 µM | 13.8 | 30.5 µM |  |  |  |  |  |  |  |
| CN1CCN(CCCN2c3ccccc3Sc3ccc(C(F)(F)F)cc32)CC1 | 1.69 | 3.29 µM and 9.49 µM and 11.4 µM | 1.6 | 3.63 µM and 20.2 µM and 23.1 µM | 12.5 µM and 12.3 µM | 21.5 | 23 | 32.1 | 5.22 | 19.8 |  |
| O=[N+]([O-])c1ccc(NN=C2c3ccccc3Cc3ccccc32)c([N+](=O)[O-])c1 |  | 5.8 µM |  | > 100 µM | 7.75 µM |  |  |  |  |  |  |
| COc1cc2c3c(c1OCc1ccccc1)NCCC3NCC2 (stereo unspecified) |  |  |  |  |  |  | > 100 | > 100 | > 100 | > 100 | > 100 |
| COc1cc(C2C(C(=O)OCc3ccccc3)=C(C)NC(C)=C2C(=O)OCc2ccccc2)cc(OC)c1OC |  |  | 3.67 | > 100 µM |  |  |  |  |  |  |  |
| O=C1c2ccccc2CCC1(Br)Br | 2.34 | 6.53 µM |  |  |  |  |  |  |  |  |  |
| Cc1[nH]c2ccccc2c1C1=CC(=O)C=CC1=O | 5.04 | 23.5 µM | 2.65 | 5.75 µM |  |  |  |  |  |  |  |
| Cc1ccc(S(=O)(=O)NC(=O)C#CCOC2CCCCO2)cc1 (stereo unspecified) |  |  |  |  |  | > 100 | > 100 |  | > 100 | > 100 | > 100 |
| N#CC(C(=O)C(=O)Nc1ccc(Cl)c(Cl)c1)c1ccc(Cl)cc1 (stereo unspecified) |  |  |  |  |  | > 100 | > 100 | > 100 | > 100 | > 100 |  |
| CNC(=O)c1c(NC(=O)c2ccc(C(C)C)cc2)sc2c1CCC(=O)C2 | 1.07 | 3.93 µM | 0.341 | 2.3 µM |  |  |  |  |  |  |  |
| COc1ccc(NC(=O)CC(=O)n2nc(-c3ccccc3)c(N=Nc3ccccc3C)c2-c2ccccc2)cc1 |  | > 100 µM |  | 57.7 µM | > 100 µM | > 100 | > 100 |  | > 100 | 41.2 | > 100 |
| CC(C)NCCCCCNc1cc(O)cc2cccnc12 | > 100 | > 100 µM | 4.56 | > 100 µM |  |  |  |  |  |  |  |
| COC(=O)C1=C(C)N(NC(=O)c2cccc(Cl)c2)C(C)(O)C12CCOC2=O (stereo unspecified) |  |  |  |  |  |  | > 100 | > 100 | > 100 | > 100 | > 100 |
| CCOC(=O)NN(C(=O)OCC)C(C(=O)c1ccc(Cl)cc1)=C1NCCN1 |  |  |  |  |  | > 100 | > 100 | > 100 | > 100 | > 100 |  |
| CCOC(=O)/C(=C/c1ccc(Cl)cc1)N(CC)CC |  |  |  |  |  | > 100 | > 100 | > 100 |  |  |  |
| O=C(NCCCCCCNC(=O)NC1OCC(O)C(O)C1O)NC1OCC(O)C(O)C1O (stereo unspecified) |  |  |  |  |  |  | > 100 | > 100 |  |  |  |

Source: PubChem BioAssay (NCI)
